The values that follow come from patent US11787825B2 (priority 2021, dated 2023).

SMILES strings stand for the structures. Like-named read-outs stand apart in the source and are kept apart here. Bounds are passed on as bounds.

[1] abbreviates: 0.1N HCL, 1.0% DMSO, 24-hour incubation at ambient temperature, maximum theoretical compound concentration 100 μM.
[2] abbreviates: 1×PBS buffer (pH 7.4), 1.0% DMSO, 24-hour incubation at ambient temperature, maximum theoretical compound concentration 100 μM.

Turning to `CC(C)(CC(=O)N(c1nn(CC(F)(F)F)c2c(-c3ccc(C#CC(C)(C)S(C)(=O)=O)nc3[C@H](Cc3cc(F)cc(F)c3)NC(=O)Cn3nc(C(F)(F)F)c4c3C(F)(F)[C@@H]3C[C@H]43)ccc(Cl)c12)S(C)(=O)=O)c1c(CC(=O)O)cccc1OP(=O)(O)O` [Compound 70, 2-(2-(4-(N-(4-chloro-7-(2-((S)-1-(2-((3bS,4aR)-5,5-difluoro (trifluoromethyl)-3b,4,4a,5-tetrahydro-1H-cyclopropa[3,4]cyclopenta[1,2-c]pyrazolyl)acetamido)-2-(3,5-difluorophenyl)ethyl)-6-(3-methyl-3-(methylsulfonyl)but-1-ynyl)pyridin-3-yl)-1-(2,2,2-trifluoroethyl)-1H-indazol-3-yl)methylsulfonamido)-2-methyloxobutan-2-yl)-3-(phosphonooxy)phenyl)acetic acid], the “pH 2 solubility” value (pH 2) is listed as 7/94 μM. Besides, under “pH 7.4”, the “pH 7 solubility” value was 7/94 μM.
With `CC(C)(CC(=O)O)C(=O)N(c1nn(CC(F)(F)F)c2c(-c3ccc(C#CC(C)(C)S(C)(=O)=O)nc3[C@H](Cc3cc(F)cc(F)c3)NC(=O)Cn3nc(C(F)(F)F)c4c3C(F)(F)[C@@H]3C[C@H]43)ccc(Cl)c12)S(C)(=O)=O` [Compound 15, 4-(N-(4-chloro-7-(2-((S)-1-(2-((3bS,4aR)-5,5-difluoro-3-(trifluoromethyl)-3b,4,4a,5-tetrahydro-1H-cyclopropa[3,4]cyclopenta[1,2-c]pyrazol-1-yl)acetamido)-2-(3,5-difluorophenyl)ethyl)-6-(3-methyl-3-(methylsulfonyl)but-1-yn-1-yl)pyridin-3-yl)-1-(2,2,2-trifluoroethyl)-1H-indazol-3-yl)methylsulfonamido)-3,3-dimethyl-4-oxobutanoic acid], the “pH 2 solubility” value under setting [1] was 1/1 μM. In addition, the “pH 7 solubility” value under setting [2] is 1/1 μM.
On to `CC(C)(C#Cc1ccc(-c2ccc(Cl)c3c(N(C(=O)CCCC(=O)O)S(C)(=O)=O)nn(CC(F)(F)F)c23)c([C@H](Cc2cc(F)cc(F)c2)NC(=O)Cn2nc(C(F)(F)F)c3c2C(F)(F)[C@@H]2C[C@H]32)n1)S(C)(=O)=O` [Compound 25, 5-(N-(4-chloro-7-(2-((S)-1-(2-((3bS,4aR)-5,5-difluoro-3-(trifluoromethyl)-3b,4,4a,5-tetrahydro-1H-cyclopropa[3,4]cyclopenta[1,2-c]pyrazol-1-yl)acetamido)-2-(3,5-difluorophenyl)ethyl)-6-(3-methyl-3-(methylsulfonyl)but-1-yn-1-yl)pyridin-3-yl)-1-(2,2,2-trifluoroethyl)-1H-indazol-3-yl)methylsulfonamido)-5-oxopentanoic acid], for which the “pH 2 solubility” value under setting [1] is reported as 1/1 μM. The “pH 7 solubility” value under setting [2] was 1/1 μM.
As for `CC(C)(C#Cc1ccc(-c2ccc(Cl)c3c(N(C(=O)[C@@H](N)CCCCN)S(C)(=O)=O)nn(CC(F)(F)F)c23)c([C@H](Cc2cc(F)cc(F)c2)NC(=O)Cn2nc(C(F)(F)F)c3c2C(F)(F)[C@@H]2C[C@H]32)n1)S(C)(=O)=O` [Compound 11, (S)-2,6-diamino-N-(4-chloro-7-(2-((S)-1-(2-((3bS,4aR)-5,5-difluoro-3-(trifluoromethyl)-3b,4,4a,5-tetrahydro-1H-cyclopropa[3,4]cyclopenta[1,2-c]pyrazol-1-yl)acetamido)-2-(3,5-difluorophenyl)ethyl)-6-(3-methyl-3-(methylsulfonyl)but-1-yn-1-yl)pyridin-3-yl)-1-(2,2,2-trifluoroethyl)-1H-indazol-3-yl)-N-(methylsulfonyl)hexanamide], under setting [1], the “pH 2 solubility” value was 100 μM. Also, under setting [2], the “pH 7 solubility” value is 43 μM.
For the compound `CC(C)(CC(=O)N(c1nn(CC(F)(F)F)c2c(-c3ccc(C#CC(C)(C)S(C)(=O)=O)nc3[C@H](Cc3cc(F)cc(F)c3)NC(=O)Cn3nc(C(F)(F)F)c4c3C(F)(F)[C@@H]3C[C@H]43)ccc(Cl)c12)S(C)(=O)=O)c1c(CC(=O)O)cc(C(N)=O)cc1OP(=O)(O)O` [Compound 68], the “pH 2 solubility” value (pH 2) is listed as <1/65 μM. For the same compound, the “pH 7 solubility” value (pH 7.4) is reported as <1/65 μM.
As for `CN[C@H](C(=O)N(c1nn(CC(F)(F)F)c2c(-c3ccc(C#CC(C)(C)S(C)(=O)=O)nc3[C@H](Cc3cc(F)cc(F)c3)NC(=O)Cn3nc(C(F)(F)F)c4c3C(F)(F)[C@@H]3C[C@H]43)ccc(Cl)c12)S(C)(=O)=O)C(C)C` [Compound 21, N-(4-chloro-7-(2-((S)-1-(2-((3bS,4aR)-5,5-difluoro-3-(trifluoromethyl)-3b,4,4a,5-tetrahydro-1H-cyclopropa[3,4]cyclopenta[1,2-c]pyrazol-1-yl)acetamido)-2-(3,5-difluorophenyl)ethyl)-6-(3-methyl-3-(methylsulfonyl)but-1-yn-1-yl)pyridin-3-yl)-1-(2,2,2-trifluoroethyl)-1H-indazol-3-yl)-3-methyl-2-(methylamino)-N-(methylsulfonyl)butanamide], the “pH 2 solubility” value under setting [1] is recorded as 72 μM. The “pH 7 solubility” value under setting [2] turned out to be 2 μM.
The matching figures for `C[C@H](CC(=O)O)C(=O)N(c1nn(CC(F)(F)F)c2c(-c3ccc(C#CC(C)(C)S(C)(=O)=O)nc3[C@H](Cc3cc(F)cc(F)c3)NC(=O)Cn3nc(C(F)(F)F)c4c3C(F)(F)[C@@H]3C[C@H]43)ccc(Cl)c12)S(C)(=O)=O` [Compound 26, (R)-4-(N-(4-chloro-7-(2-((S)-1-(2-((3bS,4aR)-5,5-difluoro-3-(trifluoromethyl)-3b,4,4a,5-tetrahydro-1H-cyclopropa[3,4]cyclopenta[1,2-c]pyrazol-1-yl)acetamido)-2-(3,5-difluorophenyl)ethyl)-6-(3-methyl-3-(methylsulfonyl)but-1-yn-1-yl)pyridin-3-yl)-1-(2,2,2-trifluoroethyl)-1H-indazol-3-yl)methylsulfonamido)-3-methyl-4-oxobutanoic acid]: 1/1 μM and 1/1 μM.
The matching figures for `CC(C)[C@H](N)C(=O)N(c1nn(CC(F)(F)F)c2c(-c3ccc(C#CC(C)(C)S(C)(=O)=O)nc3[C@H](Cc3cc(F)cc(F)c3)NC(=O)Cn3nc(C(F)(F)F)c4c3C(F)(F)[C@@H]3C[C@H]43)ccc(Cl)c12)S(C)(=O)=O` [Compound 20, (S)-2-amino-N-(4-chloro-7-(2-((S)-1-(2-((3bS,4aR)-5,5-difluoro-3-(trifluoromethyl)-3b,4,4a,5-tetrahydro-1H-cyclopropa[3,4]cyclopenta[1,2-c]pyrazol-1-yl)acetamido)-2-(3,5-difluorophenyl)ethyl)-6-(3-methyl-3-(methylsulfonyl)but-1-yn-1-yl)pyridin-3-yl)-1-(2,2,2-trifluoroethyl)-1H-indazol-3-yl)-3-methyl-N-(methylsulfonyl)butanamide]: 69 μM and 2 μM.
In the case of `CC(C)(C#Cc1ccc(-c2ccc(Cl)c3c(N(C(=O)CNC(=O)C(=O)O)S(C)(=O)=O)nn(CC(F)(F)F)c23)c([C@H](Cc2cc(F)cc(F)c2)NC(=O)Cn2nc(C(F)(F)F)c3c2C(F)(F)[C@@H]2C[C@H]32)n1)S(C)(=O)=O` [Compound 13, 2-((2-(N-(4-chloro-7-(2-((S)-1-(2-((3bS,4aR)-5,5-difluoro-3-(trifluoromethyl)-3b,4,4a,5-tetrahydro-1H-cyclopropa[3,4]cyclopenta[1,2-c]pyrazol-1-yl)acetamido)-2-(3,5-difluorophenyl)ethyl)-6-(3-methyl-3-(methylsulfonyl)but-1-yn-1-yl)pyridin-3-yl)-1-(2,2,2-trifluoroethyl)-1H-indazol-3-yl)methylsulfonamido)-2-oxoethyl)amino)-2-oxoacetic acid], the “pH 2 solubility” value under setting [1] is recorded as 1 μM. In addition, the “pH 7 solubility” value under setting [2] turned out to be 90 μM.
